Assay results published in US20210261621A1, “Preparation of Dilipid Polymixins and Use Thereof as Antimicrobial Adjuvants” (priority 2018, published 2021).
Like-named read-outs stand apart in the source and are kept apart here. Positions of bridges follow the written chain, without caps; N, C: chain ends. Non-standard residues stand in square brackets, D forms with d. Residues, ends and D or L forms follow the SMILES beside them. *: point of attachment. Lauroyl = CCCCCCCCCCCC(=O)*; Dab = NCC[C@H](N)C(=O)O; Butyryl = CCCC(=O)*

System: P. aeruginosa PAO1
Parameters: MICDrug / MICDrug in combo / MIC of adjuvant in combo: unit not given beside the values
Settings: for MIC of adjuvant alone (MIC1, MIC2, MIC3, MIC4, MIC5, MICPMBN): one value per checkerboard, in µg/mL
Method: The potential of the dilipid polymyxins to serve as an adjuvant in combination with other antibiotics was evaluated against P. aeruginosa PAO1 strain (Tables 4 and 7-12). […] Checkerboard assays were performed with the dilipid polymyxins in combination with twenty-one clinically-used antibiotics. The panel included representatives from the β-lactam, carbapenem, tetracycline, aminoglycoside and fluoroquinolone antibiotic families. Other agents that are used to treat Gram-negative bacterial infection such as fosfomycin, trimethoprim and chloramphenicol were also included. […] Fractional inhibitory concentration (FIC) index was calculated for each combination to measure potential synergism between the two agents. FIC was obtained by dividing the MIC of antibiotic/adjuvant in combination by the MIC of antibiotic/adjuvant alone, while FIC index was calculated by the summation of FIC indices for the antibiotic and adjuvant. An FIC index of ≤0.5, 0.5<x≤4, or >4 denotes for synergistic, additive or antagonistic interaction, respectively. Initially, we assessed the adjuvant properties of PMBN against the panel of 21 antibiotics.
The assay was performed on 96-well plates as previously described. Briefly, the antibiotic at study was 2-fold serially diluted along the x-axis, while the adjuvant was 2-fold serially diluted along the y-axis to create a matrix in which each well consists of a combination of both at different concentrations. Overnight grown bacterial cultures were diluted in saline to 0.5 McFarland turbidity, followed by 1:50 dilution in MHB and inoculation on each well to a final concentration of approximately 5×10^5 colony forming units/mL. Wells containing only MHB with or without bacterial cells were used as positive or negative control, respectively. […] The fractional inhibitory concentration (FIC) of the antibiotic was calculated via dividing the MIC of antibiotic in the presence of adjuvant by the MIC of antibiotic alone. Similarly, the FIC of adjuvant was calculated via dividing the MIC of adjuvant in the presence of antibiotic by the MIC of adjuvant alone. The FIC index was obtained by the summation of both FIC values. The FIC index was then interpreted as synergistic, additive, or antagonistic for values of ≤0.5, 0.5<x<4, or ≥4, respectively.

[1] = combination with Chloramphenicol
[2] = in combination with Ceftazidime
[3] = in combination with Chloramphenicol
[4] = in combination with Ciprofloxacin
[5] = in combination with Clindamycin
[6] = in combination with Doxycycline
[7] = in combination with Minocycline
[8] = in combination with Moxifloxacin
[9] = in combination with Piperacillin
[10] = in combination with Pleuromutilin
[11] = in combination with Streptomycin
[12] = in combination with Trimethoprim

## CCCC(=O)NCC[C@H](NC(=O)CCC)C(=O)N[C@H](C(=O)N[C@@H](CCN)C(=O)N[C@H]1CCNC(=O)[C@H]([C@@H](C)O)NC(=O)[C@H](CCN)NC(=O)[C@H](CCN)NC(=O)[C@H](CC(C)C)NC(=O)[C@@H](Cc2ccccc2)NC(=O)[C@H](CCN)NC1=O)[C@@H](C)O [Compound 1, Dibutyric Acid (Di-C4) Polymyxin] (Butyryl-[Dab](Butyryl)T[Dab][Dab][Dab][dF]L[Dab][Dab]T; lactam 4-C)
  MIC of adjuvant alone (MIC1, MIC2, MIC3, MIC4, MIC5, MICPMBN): 128
Combination with Aztreonam
  Interpretation: Synergy (An FIC index of ≤0.5, 0.5<x≤4, or >4 denotes for synergistic, additive or antagonistic interaction, respectively)
Combination with Ceftazidime
  Interpretation: Synergy (An FIC index of ≤0.5, 0.5<x≤4, or >4 denotes for synergistic, additive or antagonistic interaction, respectively)
[1]
  Interpretation: Synergy (An FIC index of ≤0.5, 0.5<x≤4, or >4 denotes for synergistic, additive or antagonistic interaction, respectively)
Combination with Ciprofloxacin
  Interpretation: Synergy (An FIC index of ≤0.5, 0.5<x≤4, or >4 denotes for synergistic, additive or antagonistic interaction, respectively)
Combination with Clindamycin
  Interpretation: Synergy (An FIC index of ≤0.5, 0.5<x≤4, or >4 denotes for synergistic, additive or antagonistic interaction, respectively)
Combination with Doripenem
  Interpretation: Additive (An FIC index of ≤0.5, 0.5<x≤4, or >4 denotes for synergistic, additive or antagonistic interaction, respectively)
Combination with Doxycycline
  Interpretation: Synergy (An FIC index of ≤0.5, 0.5<x≤4, or >4 denotes for synergistic, additive or antagonistic interaction, respectively)
Combination with Fosfomycin
  Interpretation: Synergy (An FIC index of ≤0.5, 0.5<x≤4, or >4 denotes for synergistic, additive or antagonistic interaction, respectively)
Combination with Gentamicin
  Interpretation: Additive (An FIC index of ≤0.5, 0.5<x≤4, or >4 denotes for synergistic, additive or antagonistic interaction, respectively)
Combination with Linezolid
  Interpretation: Synergy (An FIC index of ≤0.5, 0.5<x≤4, or >4 denotes for synergistic, additive or antagonistic interaction, respectively)
Combination with Meropenem
  Interpretation: Synergy (An FIC index of ≤0.5, 0.5<x≤4, or >4 denotes for synergistic, additive or antagonistic interaction, respectively)
Combination with Minocycline
  Interpretation: Synergy (An FIC index of ≤0.5, 0.5<x≤4, or >4 denotes for synergistic, additive or antagonistic interaction, respectively)
Combination with Moxifloxacin
  Interpretation: Synergy (An FIC index of ≤0.5, 0.5<x≤4, or >4 denotes for synergistic, additive or antagonistic interaction, respectively)
Combination with Novobiocin
  Interpretation: Synergy (An FIC index of ≤0.5, 0.5<x≤4, or >4 denotes for synergistic, additive or antagonistic interaction, respectively)
Combination with Piperacillin
  Interpretation: Additive (An FIC index of ≤0.5, 0.5<x≤4, or >4 denotes for synergistic, additive or antagonistic interaction, respectively)
Combination with Pleuromutilin
  Interpretation: Synergy (An FIC index of ≤0.5, 0.5<x≤4, or >4 denotes for synergistic, additive or antagonistic interaction, respectively)
Combination with Rifampicin
  Interpretation: Synergy (An FIC index of ≤0.5, 0.5<x≤4, or >4 denotes for synergistic, additive or antagonistic interaction, respectively)
Combination with Streptomycin
  Interpretation: Additive (An FIC index of ≤0.5, 0.5<x≤4, or >4 denotes for synergistic, additive or antagonistic interaction, respectively)
Combination with Tobramycin
  Interpretation: Additive (An FIC index of ≤0.5, 0.5<x≤4, or >4 denotes for synergistic, additive or antagonistic interaction, respectively)
Combination with Trimethoprim
  Interpretation: Synergy (An FIC index of ≤0.5, 0.5<x≤4, or >4 denotes for synergistic, additive or antagonistic interaction, respectively)
Combination with Vancomycin
  Interpretation: Synergy (An FIC index of ≤0.5, 0.5<x≤4, or >4 denotes for synergistic, additive or antagonistic interaction, respectively)
In combination with Aztreonam
  MIC of adjuvant in combo: (32)
[2]
  MIC of adjuvant in combo: (32)
[3]
  MIC of adjuvant in combo: (4)
[4]
  MIC of adjuvant in combo: (32)
[5]
  MIC of adjuvant in combo: (8)
In combination with Doripenem
  MIC of adjuvant in combo: (32)
[6]
  MIC of adjuvant in combo: (2)
In combination with Fosfomycin
  MIC of adjuvant in combo: (16)
In combination with Gentamicin
  MIC of adjuvant in combo: (0.0625)
In combination with Linezolid
  MIC of adjuvant in combo: (4)
In combination with Meropenem
  MIC of adjuvant in combo: (32)
[7]
  MIC of adjuvant in combo: (2)
[8]
  MIC of adjuvant in combo: (16)
In combination with Novobiocin
  MIC of adjuvant in combo: (8)
[9]
  MIC of adjuvant in combo: (32)
[10]
  MIC of adjuvant in combo: (8)
In combination with Rifampicin
  MIC of adjuvant in combo: (2)
[11]
  MIC of adjuvant in combo: (32)
In combination with Tobramycin
  MIC of adjuvant in combo: (0.5)
[12]
  MIC of adjuvant in combo: (16)
In combination with Vancomycin
  MIC of adjuvant in combo: (32)

## CCCCCCCCCCCC(=O)NCC[C@H](NC(=O)CCCCCCCCCCC)C(=O)N[C@H](C(=O)N[C@@H](CCN)C(=O)N[C@H]1CCNC(=O)[C@H]([C@@H](C)O)NC(=O)[C@H](CCN)NC(=O)[C@H](CCN)NC(=O)[C@H](CC(C)C)NC(=O)[C@@H](Cc2ccccc2)NC(=O)[C@H](CCN)NC1=O)[C@@H](C)O [Compound 3, Didodecanoic Acid (Di-C12) Polymyxin] (Lauroyl-[Dab](Lauroyl)T[Dab][Dab][Dab][dF]L[Dab][Dab]T; lactam 4-C)
  MIC of adjuvant alone (MIC1, MIC2, MIC3, MIC4, MIC5, MICPMBN): 32
Combination with Aztreonam
  Interpretation: Additive (An FIC index of ≤0.5, 0.5<x≤4, or >4 denotes for synergistic, additive or antagonistic interaction, respectively)
Combination with Ceftazidime
  Interpretation: Additive (An FIC index of ≤0.5, 0.5<x≤4, or >4 denotes for synergistic, additive or antagonistic interaction, respectively)
[1]
  Interpretation: Additive (An FIC index of ≤0.5, 0.5<x≤4, or >4 denotes for synergistic, additive or antagonistic interaction, respectively)
Combination with Ciprofloxacin
  Interpretation: Additive (An FIC index of ≤0.5, 0.5<x≤4, or >4 denotes for synergistic, additive or antagonistic interaction, respectively)
Combination with Clindamycin
  Interpretation: Additive (An FIC index of ≤0.5, 0.5<x≤4, or >4 denotes for synergistic, additive or antagonistic interaction, respectively)
Combination with Doripenem
  Interpretation: Additive (An FIC index of ≤0.5, 0.5<x≤4, or >4 denotes for synergistic, additive or antagonistic interaction, respectively)
Combination with Doxycycline
  Interpretation: Additive (An FIC index of ≤0.5, 0.5<x≤4, or >4 denotes for synergistic, additive or antagonistic interaction, respectively)
Combination with Fosfomycin
  Interpretation: Additive (An FIC index of ≤0.5, 0.5<x≤4, or >4 denotes for synergistic, additive or antagonistic interaction, respectively)
Combination with Gentamicin
  Interpretation: Additive (An FIC index of ≤0.5, 0.5<x≤4, or >4 denotes for synergistic, additive or antagonistic interaction, respectively)
Combination with Linezolid
  Interpretation: Additive (An FIC index of ≤0.5, 0.5<x≤4, or >4 denotes for synergistic, additive or antagonistic interaction, respectively)
Combination with Meropenem
  Interpretation: Additive (An FIC index of ≤0.5, 0.5<x≤4, or >4 denotes for synergistic, additive or antagonistic interaction, respectively)
Combination with Minocycline
  Interpretation: Additive (An FIC index of ≤0.5, 0.5<x≤4, or >4 denotes for synergistic, additive or antagonistic interaction, respectively)
Combination with Moxifloxacin
  Interpretation: Additive (An FIC index of ≤0.5, 0.5<x≤4, or >4 denotes for synergistic, additive or antagonistic interaction, respectively)
Combination with Novobiocin
  Interpretation: Additive (An FIC index of ≤0.5, 0.5<x≤4, or >4 denotes for synergistic, additive or antagonistic interaction, respectively)
Combination with Piperacillin
  Interpretation: Additive (An FIC index of ≤0.5, 0.5<x≤4, or >4 denotes for synergistic, additive or antagonistic interaction, respectively)
Combination with Pleuromutilin
  Interpretation: Additive (An FIC index of ≤0.5, 0.5<x≤4, or >4 denotes for synergistic, additive or antagonistic interaction, respectively)
Combination with Rifampicin
  Interpretation: Additive (An FIC index of ≤0.5, 0.5<x≤4, or >4 denotes for synergistic, additive or antagonistic interaction, respectively)
Combination with Streptomycin
  Interpretation: Additive (An FIC index of ≤0.5, 0.5<x≤4, or >4 denotes for synergistic, additive or antagonistic interaction, respectively)
Combination with Tobramycin
  Interpretation: Additive (An FIC index of ≤0.5, 0.5<x≤4, or >4 denotes for synergistic, additive or antagonistic interaction, respectively)
Combination with Trimethoprim
  Interpretation: Additive (An FIC index of ≤0.5, 0.5<x≤4, or >4 denotes for synergistic, additive or antagonistic interaction, respectively)
Combination with Vancomycin
  Interpretation: Additive (An FIC index of ≤0.5, 0.5<x≤4, or >4 denotes for synergistic, additive or antagonistic interaction, respectively)
In combination with Aztreonam
  MIC of adjuvant in combo: (16)
[2]
  MIC of adjuvant in combo: (16)
[3]
  MIC of adjuvant in combo: (16)
[4]
  MIC of adjuvant in combo: (0.25)
[5]
  MIC of adjuvant in combo: (16)
In combination with Doripenem
  MIC of adjuvant in combo: (16)
[6]
  MIC of adjuvant in combo: (16)
In combination with Fosfomycin
  MIC of adjuvant in combo: (8)
In combination with Gentamicin
  MIC of adjuvant in combo: (0.25)
In combination with Linezolid
  MIC of adjuvant in combo: (32)
In combination with Meropenem
  MIC of adjuvant in combo: (16)
[7]
  MIC of adjuvant in combo: (16)
[8]
  MIC of adjuvant in combo: (16)
In combination with Novobiocin
  MIC of adjuvant in combo: (16)
[9]
  MIC of adjuvant in combo: (16)
[10]
  MIC of adjuvant in combo: (16)
In combination with Rifampicin
  MIC of adjuvant in combo: (8)
[11]
  MIC of adjuvant in combo: (0.25)
In combination with Tobramycin
  MIC of adjuvant in combo: (0.25)
[12]
  MIC of adjuvant in combo: (16)
In combination with Vancomycin
  MIC of adjuvant in combo: (16)
Result in words
  adjuvant activity (potentiation of the panel of 21 antibiotics): did not enhance the activity of any antibiotics
